Source: US6890523B2 (priority 1999, dated 2005)

Tested on: C. difficile
Conditions: hamster; relapse/recurrence of CDAD
Experimental: Compounds were evaluated for their ability to inhibit the activity of C. difficile toxins the hamster model of C. difficile colitis. Male hamsters (80-100 g) were purchased Biobreeders Inc. (Falmouth, Mass.). All animals were maintained in groups of five in microisolator cages on autoclaved bedding (Beta Chips) and given free access to autoclaved chow and autoclaved, filtered water. Animals were rested approximately 1 week following arrival and prior to initiation of a study. A C. difficile strain initially isolated from a human C. difficile colitis was used to infect the animals. This strain (HUC2-4) produces moderate to high levels of toxins in vitro and in vivo. A suspension of 10^6-10^7 bacterial cells/ml was prepared from an overnight broth culture and 0.1 ml was administered by oral gavage on day −1. Twenty-four hours later, each animal was injected subcutaneously with Cleocin Phosphate IV® at a dose of 10 mg/kg. Polymers were administered to groups of ten animals by gavage three times daily (t.i.d). The dose of polymers was 25-100 mg/day, administered in three divided doses of 0.75 ml each. Initiation and duration of dosing varied according to the treatment regimens as described below. Animals were observed daily for morbidity or mortality. Additional parameters assessed were general appearance, time to onset of clinical signs, and presence or absence of diarrhea (“wet tail”). […]

Structure (SMILES): Cc1ncc([N+](=O)[O-])n1CCO [metronidazole]
- time to death after discontinuing metronidazole: 3 to 6 days
